Laboratory results taken from patent US11376271B1, “Methods of ameliorating the effects of alcoholic liver damage” (FULGENT LIFE INC., priority 2021, dated 2022).

How the values were obtained:
[1] = tested on: AML12 cells; assay: Rescue from hydrogen peroxide (HP) genotoxicity: cell survival and NAD+ level; type: cell-based; settings: 3 h
Protocol: Because the increasing extent of NAD+ concentration is of interest, whether NADH can improve the cell survival rate under the stressful conditions of depletion of NAD+ was also assessed. To that end, as genotoxicity can lead to DNA damage, activate poly(ADP-ribose) polymerases and induce NAD+ depletion, genotoxicity was tested. Strong genotoxicity will lead to severe consumption of NAD+ by cells, resulting in cell death. To test genotoxicity, AML12 cells were treated with 500 μM hydrogen peroxide (HP) for 3 hours in the presence or absence of 1 mM NADH, and then the cells were counted and NAD+ was detected in the samples co-treated with NADH (1 mM) or its vehicle. FIG. 4A is a graph comparing the cell survival rate of the HP treated cells, NADH treated cells, and the HP+NADH treated cells relative to a control. And FIG. 4B is a graph comparing the NAD+ level of the HP treated cells, NADH treated cells, and the HP+NADH treated cells relative to a control. The cell survival rates and cellular NAD+ levels in FIGS. 4A-B are expressed as mean±SD.
The effects of NADH and NMN at a lower concentration (250 μM) on AML12 cells was also tested in a separate assay. Specifically, AML12 cells were treated with 500 μM HP in the presence or absence of 250 μm NADH or NMN for 3 h. FIG. 4C is a graph comparing the cell survival rate of the HP treated cells, HP+NADH treated cells, and the HP+NMN treated cells relative to a control. And FIG. 4D is a graph comparing the NAD+ level of the HP treated cells, HP+NADH treated cells, and the HP+NMN treated cells relative to a control. The cell survival rate and cellular NAD+ levels in FIGS. 4C-D are expressed as mean±SD.

[2] = tested on: male C57BL/6J mice; assay: Tissue NAD+ content after intraperitoneal injection; type: in vivo; settings: 4 hours
Protocol: In the below in vivo assays, C57BL/6J male mice (The Jackson Laboratory) (40 days of age) were used. They were kept under standard laboratory conditions with a temperature of 22±1° C., dark/light cycles of 12/12 h, and relative humidity of 55±5%. All animals had free access to food and water, except for indicated fasting periods (and where not indicated for fasting periods of 2 hours before administration).
[…] Specifically, ten 8-week-old male C57BL/6J mice (The Jackson Laboratory) were kept in polycarbonate cages under a 12-h light/dark cycle with free access to food and water. […] Four hours later, the blood samples were collected by cardiac puncture and the mice were executed. Liver, brain, muscle, and adipose tissues were collected, instantly frozen in liquid nitrogen, and then stored at −80° C. until performance of the NAD+ analyses. […] Four hours later, the mice were killed and tissue samples were collected. All animal studies were performed according to the Guidelines for the Care and Use of Experimental Animals. For this NAD+ assay, about 100 mg of frozen tissue was crushed in liquid nitrogen and ultrasonically homogenized in 7% perchloric acid, and then the solution was neutralized and subjected to the NAD+ determination described here.
Data are indicated as mean±SD.

[3] = tested on: male C57BL/6J mice; assay: Plasma AST and ALT in acute alcohol-induced hepatotoxicity; type: in vivo
Protocol: Liver marker enzymes in plasma, such as aspartate transaminase (AST) and alanine aminotransferase (ALT), are known as sensitive biochemical markers of early liver damage. […] Six hours after treatment with alcohol, blood samples were taken to detect biochemical indexes. […] The control group was given the same amount of normal saline in place of the ethanol. […] The plasma levels of AST and ALT were determined by collecting blood samples in an anti-coagulant test tube and centrifuging at 1500 rpm for 10 minutes to attain plasma. The plasma AST and ALT activity was determined with a commercial kit (from Sigma-Aldrich) based on the manufacturer's instructions.

[4] = tested on: male C57BL/6J mice; assay: Liver histopathology by Oil Red O staining; type: in vivo; settings: 500 mg/kg intragastric 15 min prior to 8 ml/kg ethanol
Protocol: Liver histopathology was detected by Oil Red 0 staining. According to the standard operating procedure, some liver tissues were fixed for histopathological assessment. The other part of the liver was stored at −80° C. […] frozen sections were stained with Oil Red 0 to detect liver steatosis. The stained sections were examined by a 400× optical microscope. The level of VLDL in serum samples was examined with a Bio-Tek synergy2 Multiscan Spectrum (Botten Instruments Co.).

[5] = tested on: AML12 cells; assay: NAD+/NADH ratio in AML12 cells; settings: 1 mM, 6 h, vs control
[6] = 500 μM HP + 250 μM compound, AML12 cells
[7] = 500 mg/kg intragastric 30 min prior to 8 ml/kg ethanol (40% w/v), blood 6 h after alcohol
[8] = 40% ethanol every 24 h for 3 days, then 500 mg/kg every day for three days

NC(=O)C1=CN([C@@H]2O[C@H](COP(=O)(O)OP(=O)(O)OC[C@H]3O[C@@H](n4cnc5c(N)ncnc54)C(O)C3O)C(O)C2O)C=CC1 (some centres unmarked) [NADH, nicotinamide adenine dinucleotide (NAD)+hydrogen (H)]
effect on NAD+ levels under HP [1, 6]: protective effect | effect on cell survival under HP [1, 6]: protective effect | NAD+ level in HP co-treated cells ([1]; 500 μM HP + 1 mM NADH, AML12 cells): remained high | cell survival rate under HP+NADH treatment ([1]; 500 μM HP + 1 mM NADH, AML12 cells (HP alone 12%)): ~72% | increase of the concentration of NAD+ in the liver ([2]; 250 mg/kg intraperitoneal): 680% | NAD+-promoting effect in skeletal muscle ([2]; 1000 mg/kg intraperitoneal): lowest | content of NAD+ in blood, brain and fat ([2]; 1000 mg/kg intraperitoneal): increased several times | increase of NAD+ content in liver ([2]; 1000 mg/kg intraperitoneal): more than 7 times | plasma ALT level, pre-treatment [3, 7]: significantly reduce | plasma AST level, pre-treatment [3, 7]: significantly reduce | plasma ALT level, treatment after alcohol exposure [3, 8]: significantly reduce | plasma AST level, treatment after alcohol exposure [3, 8]: significantly reduce | degree of liver fatty degeneration (Oil Red O) [4]: noticeably decreased | NAD+/NADH ratio [5]: significantly increase
